These results are taken from patent publication US4025508A, “6-(Trifluoromethyl)-benzothiadiazines” (Serdex - Societe d'Etudes, de Recherches, de Diffusion et …, priority 1973, dated 1977).

Data set [1] relates to glycemia. Description: Hyperglycemia-producing activity, tests in dogs (glycemia). It counts as in vivo, dog. The following applies: p.o.
Data set [2] concerns glycemia. The experiment in a line: Hyperglycemia-producing activity, tests in rats (glycemia). In kind it is in vivo, rat (adult white rats). The protocol: The following test methods were used to determine the hyperglycemia-producing activity:
The experiments were conducted in adult white rats weighing 200 g+ 10 g.
The products were administered as a suspension in gummy julep, by stomach tube, at dosages of 10, 20 and 100 mg/kg, p.o.
At each dosage level, and in each case, lots of 10 test animals (5 male and 5 female) and of 10 reference animals (5 male and 5 female, administered only the gummy Julep) were used.
Blood samples were taken by cardiac puncture, at times 15, 60 minutes and 2, 4 and 24 hours after administration of the products, and the glycemia was determined.

For data set [3], the system named is cardiovascular parameters. The experiment in a line: Cardiovascular parameters (blood pressures, cardiac rhythm) in anesthetized dogs. It counts as in vivo, dog. As to conditions: 100 mg/kg, p.o.
The nature of data set [4]: Acute toxicity (LD50 /24 hours). As to conditions: in vivo, po.

Consider `O=S1(=O)NC=Nc2cc(C(F)(F)F)c(F)cc21` [Example 1, 6-trifluoromethyl-7-fluoro-2H-1,2,4-benzothiadiazine-1,1-dioxide], for which the “increase of the glycemia” value with glycemia [1] (100 mg/kg) is “about 25%”. In the data set on glycemia [1] (10 or 20 mg/kg), the “action on the glycemia” value is “no significant action”. Moreover, the glycemia after administration in the data set on glycemia [2] (100 mg/kg p.o., twenty-four hours after administration, from 0.839± 0.042 g/l) was 1.212 ± 0.041 g/L. In addition, in the data set with glycemia [2] (10 or 20 mg/kg, p.o.), the “action on the glycemia” value is given as “no significant action”. In data set [3], the “action on the cardiac rhythm” value is reported as “nor on the cardiac rhythm”, the “action on the diastolic pressure” value is “no significant action”, the “action on the differential pressure” value is “no significant action” and the “action on the mean pressure” value is “no significant action”. In addition, in data set [3], the “action on the systolic pressure” value is on record as “no significant action”. Besides, the LD50 (usually the dose at which mortality reaches 50%) at 24 h in data set [4] stood at 3230 mg/kg.
